Results on 1 compound are retold here after US20030175678A1, “Methods for identifying genes regulating desired cell phenotypes” (priority 2001, published 2003).

Experiment [1] concerns C. barkleyi suspension culture. Briefly: Differential induction of catechin accumulation in Crassula barkleyi suspension culture. Particulars: B49 medium, treated seven days after inoculation, sampled for 17 days. The experiment is classed as cell-based. How it is done:
Differential induction of catechin derivatives in the C. barkleyi suspension culture was performed in 250 mL conical flasks containing 100 mL of a secondary metabolite production medium B49 (Gamborg's B5, with 5% sucrose, and no hormones), inoculated with 16 mL of 14 day old suspension culture. The cultures were incubated under low light conditions (approximately 30 lux) at 25° C. for seven days after inoculation. Cultures were then treated using one of each of the following protocols (untreated cultures were also maintained as controls):
(2) Autoclaved aqueous 2,4-D (1 mg/L final concentration) was added;
(4) Filter-sterilized aqueous DL-phenylalanine (200 mg/L) was added;
(6) Filter-sterilized aqueous zeatin (10 μM) was added;
(7) Filter-sterilized aqueous 1-aminocyclopropane-1-carboxylic acid (10 mg/L final concentration) was added;
(8) Filter-sterilized 24-epibrassinolide (1 mg/L final concentration) was added;
(9) Incubation at a temperature of 16° C.; or (10) High light regime (approximately 160 lux).
Ten milliliter culture samples were taken at regular intervals for 17 days following the day of subculture to B49 medium. All culture samples were centrifuged for five minutes at 4000 rpm, and the cell residue was freeze-dried. Extraction, sample preparation, and HPLC analysis were performed as described in Example 1.

In experiment [2] the test system is terpene cyclase. Briefly: RT-PCR of terpene cyclase in Ajuga reptans cultures. The experiment is classed as cell-based. Particulars: 24 hours after treatment. How it is done: To investigate the pattern of regulation of the terpene cyclase identified as described above, primers were synthesized that corresponded to sequence at each end of the RACE fragment. Ajuga reptans cultures were subject to the treatments described above, and RNA collected eight and 24 hours after treatment. RT-PCR was carried out using an […]™ One-Step RT-PCR kit (Clontech Laboratories, Palo Alto, Calif.). […] The primers also appear to be amplifying a constitutive cyclase.

Consider `CC/C=C\CC1C(=O)CCC1CC(=O)OC` (centres unmarked) [methyl jasmonate], for which the “catechin biosynthesis and EGCG accumulation” value in experiment [1] is “induced catechin biosynthesis and EGCG accumulation”. The “induction of terpene cyclase (RT-PCR)” value in experiment [2] is given as “induced”.
